Source: ChEMBL document CHEMBL3817812, “An expeditious four-component domino protocol for the synthesis of novel thiazolo[3,2-a]thiochromeno[4,3-d]pyrimidine derivatives as antibacterial and antibiofilm agents” (Bioorg Med Chem, 2016)
In brackets after ≈: the same amount, converted by molar mass. Activity calls are given as the source filed them. The calls are words filed in the database; no cut-off is given here.

How the values were obtained:
Micrococcus luteus [1] = test: Antibacterial activity against Micrococcus luteus MTCC 2470 incubated for 24 hrs by well diffusion method; type: functional; settings: MTCC 2470, 24 h
Pseudomonas aeruginosa = test: Antibacterial activity against Pseudomonas aeruginosa MTCC 2453 incubated for 24 hrs by well diffusion method; type: functional; settings: MTCC 2453, 24 h
Bacillus subtilis [2] = test: Antibacterial activity against Bacillus subtilis MTCC 121 incubated for 24 hrs by well diffusion method; type: functional; settings: MTCC 121, 24 h
Bacillus subtilis [3] = test: Bactericidal activity against Bacillus subtilis MTCC 121 incubated for 24 hrs by broth dilution method; type: functional; settings: MTCC 121, 24 h
Micrococcus luteus [4] = test: Bactericidal activity against Micrococcus luteus MTCC 2470 incubated for 24 hrs by broth dilution method; type: functional; settings: MTCC 2470, 24 h
Staphylococcus aureus [5] = test: Bactericidal activity against Staphylococcus aureus MTCC 96 incubated for 24 hrs by broth dilution method; type: functional; settings: MTCC 96, 24 h
Staphylococcus aureus [6] = test: Antibacterial activity against Staphylococcus aureus MLS16 MTCC 2940 incubated for 24 hrs by well diffusion method; type: functional; settings: MLS16 MTCC 2940, 24 h
Staphylococcus aureus [7] = test: Antibacterial activity against Staphylococcus aureus MTCC 96 incubated for 24 hrs by well diffusion method; type: functional; settings: MTCC 96, 24 h
Raoultella planticola = test: Antibacterial activity against Klebsiella planticola MTCC 530 incubated for 24 hrs by well diffusion method; type: functional; settings: MTCC 530, 24 h
Staphylococcus aureus [8] = test: Bactericidal activity against Staphylococcus aureus MLS16 MTCC 2940 incubated for 24 hrs by broth dilution method; type: functional; settings: MLS16 MTCC 2940, 24 h
Escherichia coli = test: Antibacterial activity against Escherichia coli MTCC 739 incubated for 24 hrs by well diffusion method; type: functional; settings: MTCC 739, 24 h
Staphylococcus aureus [9] = test: Antibiofilm activity against Staphylococcus aureus MTCC 96 incubated for 24 hrs by crystal violet staining-based assay; type: functional, organism-based; settings: MTCC 96, 24 h
Staphylococcus aureus [10] = test: Induction of ROS accumulation in Staphylococcus aureus MTCC 96 biofilm at 4 ug/ml after 24 hrs by DCFH-DA staining-based fluorometric assay; type: functional, organism-based
Staphylococcus aureus [11] = test: Induction of ROS accumulation in Staphylococcus aureus MTCC 96 biofilm at 2 ug/ml after 24 hrs by DCFH-DA staining-based fluorometric assay; type: functional, organism-based
Bacillus subtilis [12] = test: Antibiofilm activity against Bacillus subtilis MTCC 121 incubated for 24 hrs by crystal violet staining-based assay; type: functional, organism-based; settings: MTCC 121, 24 h
Staphylococcus aureus [13] = test: Antibiofilm activity against Staphylococcus aureus MLS16 MTCC 2940 incubated for 24 hrs by crystal violet staining-based assay; type: functional, organism-based; settings: MLS16 MTCC 2940, 24 h
Micrococcus luteus [14] = test: Antibiofilm activity against Micrococcus luteus MTCC 2470 incubated for 24 hrs by crystal violet staining-based assay; type: functional, organism-based; settings: MTCC 2470, 24 h

Row | SMILES | MIC (Micrococcus luteus [1]) [µg/mL] | MIC (Pseudomonas aeruginosa) [µg/mL] | MIC (Bacillus subtilis [2]) [µg/mL] | MIC (Staphylococcus aureus [6]) [µg/mL] | MIC (Staphylococcus aureus [7]) [µg/mL] | MIC (Escherichia coli) [µg/mL] | IC50 (Staphylococcus aureus [9]) [µg/mL] | IC50 (Bacillus subtilis [12]) [µg/mL] | MBC (Bacillus subtilis [3]) [µg/mL] | MBC (Micrococcus luteus [4]) [µg/mL] | MBC (Staphylococcus aureus [5]) [µg/mL] | MIC (Raoultella planticola) [µg/mL] | MBC (Staphylococcus aureus [8]) [µg/mL] | Activity (Staphylococcus aureus [10]) | Activity (Staphylococcus aureus [11]) | IC50 (Staphylococcus aureus [13]) [µg/mL] | IC50 (Micrococcus luteus [14]) [µg/mL]
1 | COc1ccc(C2=CSC3=NC4=C(CSc5ccccc54)C(c4ccc(Cl)cc4)N23)cc1 (configuration not stated) | > 125 | > 125 | 62.5 (≈ 132 µM) | 15.6 (≈ 32.8 µM) | 7.8 (≈ 16.4 µM) | > 125 | – | – | 62.5 (≈ 132 µM) | > 125 | 15.6 (≈ 32.8 µM) | > 125 | 31.2 (≈ 65.7 µM) | – | – | – | –
2 | O=c1oc2ccccc2cc1C1=CSC2=NC3=C(CSc4ccccc43)C(c3ccccc3)N12 (configuration not stated) | 31.2 (≈ 65.2 µM) | > 125 | 31.2 (≈ 65.2 µM) | 31.2 (≈ 65.2 µM) | 15.6 (≈ 32.6 µM) | > 125 | – | – | 62.5 (≈ 131 µM) | 31.2 (≈ 65.2 µM) | 31.2 (≈ 65.2 µM) | > 125 | 62.5 (≈ 131 µM) | – | – | – | –
3 | Cc1ccc(C2C3=C(N=C4SC=C(c5ccc(Br)cc5)N42)c2ccccc2SC3)cc1 (configuration not stated) | > 125 | > 125 | > 125 | > 125 | > 125 | > 125 | – | – | – | – | – | > 125 | – | – | – | – | –
4 | O=c1oc2ccccc2cc1C1=CSC2=NC3=C(CSc4ccccc43)C(c3cccc([N+](=O)[O-])c3)N12 (configuration not stated) | > 125 | > 125 | > 125 | > 125 | > 125 | > 125 | – | – | – | – | – | > 125 | – | – | – | – | –
5 | Brc1ccc(C2=CSC3=NC4=C(CSc5ccccc54)C(c4ccccc4)N23)cc1 (configuration not stated) | > 125 | > 125 | > 125 | > 125 | > 125 | > 125 | – | – | – | – | – | > 125 | – | – | – | – | –
6 | Cc1ccc(C2C3=C(N=C4SC=C(c5cc6ccccc6oc5=O)N42)c2ccccc2SC3)cc1 (configuration not stated) | > 125 | > 125 | > 125 | 31.2 (≈ 63.3 µM) | 31.2 (≈ 63.3 µM) | > 125 | – | – | > 125 | > 125 | 62.5 (≈ 127 µM) | > 125 | 31.2 (≈ 63.3 µM) | – | – | – | –
7 | O=C(O)c1cn(C2CC2)c2cc(N3CCNCC3)c(F)cc2c1=O [CIPROFLOXACIN] | 0.9 (≈ 2.72 µM) | 0.9 (≈ 2.72 µM) | 0.9 (≈ 2.72 µM) | 0.9 (≈ 2.72 µM) | 0.9 (≈ 2.72 µM) | 0.9 (≈ 2.72 µM) | – | – | 0.9 (≈ 2.72 µM) | 1.9 (≈ 5.73 µM) | 1.9 (≈ 5.73 µM) | 0.9 (≈ 2.72 µM) | 0.9 (≈ 2.72 µM) | Active | Active | 0.4 (≈ 1.21 µM) | 0.4 (≈ 1.21 µM)

Further lines, with some results ahead:

Row | MIC (Micrococcus luteus [1]) [µg/mL] | MIC (Pseudomonas aeruginosa) [µg/mL] | MIC (Bacillus subtilis [2]) [µg/mL] | MIC (Staphylococcus aureus [6]) [µg/mL] | MIC (Staphylococcus aureus [7]) [µg/mL] | MIC (Escherichia coli) [µg/mL] | IC50 (Staphylococcus aureus [9]) [µg/mL] | IC50 (Bacillus subtilis [12]) [µg/mL] | SMILES | MBC (Bacillus subtilis [3]) [µg/mL] | MBC (Micrococcus luteus [4]) [µg/mL] | MBC (Staphylococcus aureus [5]) [µg/mL] | MIC (Raoultella planticola) [µg/mL] | MBC (Staphylococcus aureus [8]) [µg/mL] | Activity (Staphylococcus aureus [10]) | Activity (Staphylococcus aureus [11]) | IC50 (Staphylococcus aureus [13]) [µg/mL] | IC50 (Micrococcus luteus [14]) [µg/mL]
8 | > 125 | > 125 | > 125 | > 125 | > 125 | > 125 | – | – | Clc1ccc(C2=CSC3=NC4=C(CSc5ccccc54)C(c4ccccc4)N23)cc1 (configuration not stated) | – | – | – | > 125 | – | – | – | – | –
9 | > 125 | > 125 | > 125 | 15.6 (≈ 35.1 µM) | > 125 | > 125 | – | – | Clc1ccc(C2C3=C(N=C4SC=C(c5ccccc5)N42)c2ccccc2SC3)cc1 (configuration not stated) | – | – | – | > 125 | – | – | – | – | –
10 | 7.8 (≈ 18.4 µM) | > 125 | 3.9 (≈ 9.19 µM) | 3.9 (≈ 9.19 µM) | 3.9 (≈ 9.19 µM) | > 125 | 2.1 (≈ 4.95 µM) | 1.9 (≈ 4.47 µM) | Cc1ccc(C2=CSC3=NC4=C(CSc5ccccc54)C(c4ccccc4)N23)cc1 (configuration not stated) | 3.9 (≈ 9.19 µM) | 15.6 (≈ 36.7 µM) | 7.8 (≈ 18.4 µM) | > 125 | 7.8 (≈ 18.4 µM) | Active | Active | 2.4 (≈ 5.65 µM) | 5.3 (≈ 12.5 µM)
11 | > 125 | > 125 | > 125 | > 125 | > 125 | > 125 | – | – | O=[N+]([O-])c1cccc(C2C3=C(N=C4SC=C(c5ccc(Cl)cc5)N42)c2ccccc2SC3)c1 (configuration not stated) | – | – | – | > 125 | – | – | – | – | –
12 | > 125 | > 125 | 31.2 (≈ 59.6 µM) | > 125 | 31.2 (≈ 59.6 µM) | > 125 | – | – | Clc1ccc(C2C3=C(N=C4SC=C(c5ccc(Br)cc5)N42)c2ccccc2SC3)cc1 (configuration not stated) | 31.2 (≈ 59.6 µM) | > 125 | 62.5 (≈ 119 µM) | > 125 | > 125 | – | – | – | –
13 | 15.6 (≈ 31.8 µM) | > 125 | 15.6 (≈ 31.8 µM) | > 125 | > 125 | > 125 | – | – | O=[N+]([O-])c1ccc(C2=CSC3=NC4=C(CSc5ccccc54)C(c4ccc(Cl)cc4)N23)cc1 (configuration not stated) | 31.2 (≈ 63.7 µM) | 31.2 (≈ 63.7 µM) | > 125 | > 125 | > 125 | – | – | – | –
14 | > 125 | > 125 | > 125 | > 125 | 31.2 (≈ 76 µM) | > 125 | – | – | C1=C(c2ccccc2)N2C(=NC3=C(CSc4ccccc43)C2c2ccccc2)S1 (configuration not stated) | > 125 | > 125 | 62.5 (≈ 152 µM) | > 125 | > 125 | – | – | – | –
15 | > 125 | > 125 | > 125 | > 125 | > 125 | > 125 | – | – | O=c1oc2ccccc2cc1C1=CSC2=NC3=C(CSc4ccccc43)C(c3ccc(Cl)cc3)N12 (configuration not stated) | – | – | – | > 125 | – | – | – | – | –
